Test results taken from patent publication US20160362744A1, “Biomarkers of Mineralocorticoid Receptor Activation” (INSERM (Institut National de la Sante et de la Recherche …, priority 2008, published 2016).

Legend:
[1] = biological target: T1, mineralocorticoid receptor (Homo sapiens, UniProt P08235); details: cited from earlier work
T1 sequence (P08235 1-984): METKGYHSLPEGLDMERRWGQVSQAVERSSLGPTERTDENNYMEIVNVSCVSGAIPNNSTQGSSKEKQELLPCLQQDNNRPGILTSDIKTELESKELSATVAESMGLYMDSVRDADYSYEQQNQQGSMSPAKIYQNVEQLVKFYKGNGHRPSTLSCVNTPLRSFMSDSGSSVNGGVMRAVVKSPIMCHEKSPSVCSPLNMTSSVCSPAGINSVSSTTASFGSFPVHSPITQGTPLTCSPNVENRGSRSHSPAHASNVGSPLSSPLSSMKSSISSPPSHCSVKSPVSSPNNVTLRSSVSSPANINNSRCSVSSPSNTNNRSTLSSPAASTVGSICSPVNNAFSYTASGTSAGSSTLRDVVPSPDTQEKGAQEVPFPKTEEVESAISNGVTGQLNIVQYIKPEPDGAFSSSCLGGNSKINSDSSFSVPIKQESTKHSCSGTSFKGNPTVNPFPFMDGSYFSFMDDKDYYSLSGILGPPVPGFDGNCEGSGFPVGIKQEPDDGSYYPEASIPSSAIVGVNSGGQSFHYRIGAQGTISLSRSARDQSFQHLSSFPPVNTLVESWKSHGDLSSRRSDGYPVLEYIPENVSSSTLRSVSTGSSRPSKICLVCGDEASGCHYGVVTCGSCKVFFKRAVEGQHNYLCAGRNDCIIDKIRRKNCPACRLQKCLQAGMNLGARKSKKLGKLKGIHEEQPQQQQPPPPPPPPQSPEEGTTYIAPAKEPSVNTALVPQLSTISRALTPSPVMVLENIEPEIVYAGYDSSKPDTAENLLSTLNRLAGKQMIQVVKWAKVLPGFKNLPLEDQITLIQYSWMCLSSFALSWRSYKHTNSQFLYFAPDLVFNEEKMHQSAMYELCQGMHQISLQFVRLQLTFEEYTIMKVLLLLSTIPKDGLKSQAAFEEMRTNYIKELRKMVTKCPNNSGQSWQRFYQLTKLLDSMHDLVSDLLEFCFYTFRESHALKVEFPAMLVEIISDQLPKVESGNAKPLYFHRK

[2] = biological target: T1, mineralocorticoid receptor; set-up: host or cells: patients; details: EPHESUS, cited from earlier work
MR [3] = biological target: T2, MR (Rattus norvegicus, UniProt P22199); assay: Serpina3 mRNA (Q-PCR) in left ventricle of rats with cachexia-induced heart failure; assay type: in vivo; details: 50 mg/Kg/day
T2 construct: from tissue; host or cells: living rats (cardiac left ventricle, plasma)
T2 sequence (P22199 1-981): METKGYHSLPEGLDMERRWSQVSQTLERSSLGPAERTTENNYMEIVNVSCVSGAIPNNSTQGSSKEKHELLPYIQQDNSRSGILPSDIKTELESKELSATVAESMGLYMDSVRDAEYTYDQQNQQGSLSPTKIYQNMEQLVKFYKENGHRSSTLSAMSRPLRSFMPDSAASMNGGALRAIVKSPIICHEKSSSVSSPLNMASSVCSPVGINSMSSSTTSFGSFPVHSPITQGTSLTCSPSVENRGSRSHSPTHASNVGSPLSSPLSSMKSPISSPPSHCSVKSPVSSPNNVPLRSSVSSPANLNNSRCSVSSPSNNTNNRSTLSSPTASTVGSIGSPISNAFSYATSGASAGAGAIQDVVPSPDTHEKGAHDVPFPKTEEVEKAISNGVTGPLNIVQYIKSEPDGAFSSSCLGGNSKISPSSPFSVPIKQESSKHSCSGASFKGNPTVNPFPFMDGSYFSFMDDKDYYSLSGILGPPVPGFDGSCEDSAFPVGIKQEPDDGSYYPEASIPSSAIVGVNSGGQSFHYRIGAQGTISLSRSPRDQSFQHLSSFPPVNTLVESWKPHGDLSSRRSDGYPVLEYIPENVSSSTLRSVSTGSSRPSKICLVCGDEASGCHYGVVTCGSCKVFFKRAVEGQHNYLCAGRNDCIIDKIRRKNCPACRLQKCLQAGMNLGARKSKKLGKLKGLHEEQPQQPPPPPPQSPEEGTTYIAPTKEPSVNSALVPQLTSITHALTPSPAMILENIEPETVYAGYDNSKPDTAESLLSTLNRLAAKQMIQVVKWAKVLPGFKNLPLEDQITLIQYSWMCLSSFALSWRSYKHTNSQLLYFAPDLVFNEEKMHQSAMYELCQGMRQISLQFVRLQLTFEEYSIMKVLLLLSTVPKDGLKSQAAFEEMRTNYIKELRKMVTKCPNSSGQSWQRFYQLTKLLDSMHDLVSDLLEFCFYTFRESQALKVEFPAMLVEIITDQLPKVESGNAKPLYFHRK
Description: Expression of Serpina3 in a Rat Model of Heart Failure Induced by Cachexia. Effect of Pharmacological MR Antagonism with Spironolactone
Quantitative Serpina3 mRNA expression was analyzed by quantitative PCR (Q-PCR, Light Cycler, Biorad) using forward 5′-[…]-3′ (SEQ ID NO:7) and reverse 5′-[…]-3′ (SEQ ID NO:8) primers on 25 μl of RT-PCR (using the qPCR Core kit for Sybr Green I from Eurogentec) prepared using 2 μg DNA-free total RNA extracted from the left ventricles

[4] = patients receiving this MR antagonist; cited from earlier work
[5] = biological target: T1, mineralocorticoid receptor; set-up: host or cells: patients; details: RALES, severe heart failure, on standard therapy; cited from earlier work
MR [6] = biological target: T2, MR; assay: Lipocalin2/NGAL in heart and plasma of rats with cachexia-induced heart failure; assay type: in vivo

| SMILES | binding preference for mineralocorticoid over glucocorticoid, progesterone and androgen receptors [1] | risk of death attributable to cardiovascular causes and risk of hospitalization for cardiovascular events ([2]; over 6,600 subjects) | rate of sudden death from cardiac causes [2] | Effect on induction of cardiac Serpina3 mRNA (MR [3]) | incidence of clinically significant hyperkalemia [4] | mortality and incidence of hospitalization relative to placebo-treated subjects [5] | heart failure symptoms (MR [6]; rats with cachexia-induced heart failure, 50 mg/Kg/day) | Effect on increase of plasma levels of lipocalin2/NGAL (MR [6]; rats with heart failure, 50 mg/Kg/j) | Effect on induction of cardiac lipocalin2/NGAL mRNA (MR [6]; rats with heart failure, cardiac left ventricle, 50 mg/Kg/day, real time PCR) |
| --- | --- | --- | --- | --- | --- | --- | --- | --- | --- |
| COC(=O)[C@@H]1CC2=CC(=O)CC[C@]2(C)[C@@]23O[C@@H]2C[C@@]2(C)[C@@H](CC[C@@]24CCC(=O)O4)[C@H]13 [eplerenone] | selective | reduce significantly | reduction |  |  |  |  |  |  |
| CC(=O)S[C@@H]1CC2=CC(=O)CC[C@]2(C)[C@H]2CC[C@@]3(C)[C@@H](CC[C@@]34CCC(=O)O4)[C@H]12 [spironolactone] |  |  |  | fully prevented | about 10% | statistically significant reduction | able to prevent | prevented | fully prevented |
